Earlier results, collected in patent publication US20070003642A1 (priority 2002, published 2007).

solubility of isoflavones itself (stated as natural solubility, given as explanation) | Compound | solubility of daidzin (background statement)
– | O=c1c(-c2ccc(O)cc2)coc2cc(O[C@@H]3O[C@H](CO)[C@@H](O)[C@H](O)[C@H]3O)ccc12 [daidzin] | about 3.3 mg/100 ml
about 5 mg/L | isoflavones | –
